Literature values, collected in patent publication US6727243B1, “Compositions comprising cefuroxime axetil” (Biochemie Gesellschaft m.b.H., priority 1998, dated 2004).

Details: oral administration; after consumption of food versus fastened state

In the case of `CO/N=C(\C(=O)N[C@@H]1C(=O)N2C(C(=O)OC(C)OC(C)=O)=C(COC(N)=O)CS[C@H]12)c1ccco1` (stereo partly shown) [cefuroxime axetil, 1-acetoxyethyl ester of cefuroxime], the “food effect on bioavailability” value is given as “exhibit a food effect”.
